# Source: ChEMBL document CHEMBL3885881, “DrugMatrix”
# Species on record: Rattus norvegicus
# Experiment: DrugMatrix - Regimen: Daily Repeat
# Assay type: toxicity, organism-based, Sprague-Dawley
# Design: regimen Daily Repeat, gender Male, age 6-8 weeks
# Details: in vivo, po, 0 mg/kg, route oral GAVAGE, dose level Control, vehicle .5 % CMC; for ABSOLUTE BASOPHIL / ABSOLUTE EOSINOPHIL / ABSOLUTE LYMPHOCYTE / ABSOLUTE MONOCYTE / ABSOLUTE SEGMENTED NEUTROPHIL / BASOPHIL / EOSINOPHIL / ERYTHROCYTE COUNT / HEMATOCRIT / HEMOGLOBIN / LEUKOCYTE COUNT / LYMPHOCYTE / MEAN CORPUSCULAR HEMOGLOBIN / MEAN CORPUSCULAR HEMOGLOBIN CONCENTRATION / MEAN CORPUSCULAR VOLUME / MONOCYTE / NEUTROPHIL / NUCLEATED RED BLOOD CELLS / PLATELET COUNT: tissue Blood; for ALANINE AMINOTRANSFERASE / ALBUMIN / ALKALINE PHOSPHATASE / ASPARTATE AMINOTRANSFERASE / BLOOD UREA NITROGEN / CARBON DIOXIDE / CHLORIDE / CHOLESTEROL / CREATINE PHOSPHOKINASE / CREATININE / GLUCOSE / LACTATE DEHYDROGENASE / LIPASE / PHOSPHORUS / POTASSIUM / SODIUM / TOTAL BILIRUBIN / TOTAL PROTEIN / URIC ACID: tissue Plasma
smiles,measurement,setting,value
C[C@]12CC[C@@H]3c4ccc(O)cc4CC[C@H]3[C@@H]1C[C@@H](O)[C@@H]2O [ESTRIOL],ABSOLUTE BASOPHIL,"72 h, time 3 day",0 CELLS/uL
same,ABSOLUTE EOSINOPHIL,"72 h, time 3 day",171.33 CELLS/uL
same,ABSOLUTE LYMPHOCYTE,"72 h, time 3 day",13776.5 CELLS/uL
same,ABSOLUTE MONOCYTE,"72 h, time 3 day",180.83 CELLS/uL
same,ABSOLUTE SEGMENTED NEUTROPHIL,"72 h, time 3 day",1121.33 CELLS/uL
same,BASOPHIL,"72 h, time 3 day",0%
same,EOSINOPHIL,"72 h, time 3 day",1%
same,ERYTHROCYTE COUNT,"72 h, time 3 day",5.56 x10E6/uL
same,HEMATOCRIT,"72 h, time 3 day",34.75%
same,HEMOGLOBIN,"72 h, time 3 day",13.68 G/DL
same,LEUKOCYTE COUNT,"72 h, time 3 day",15.25 x10E3/uL
same,LYMPHOCYTE,"72 h, time 3 day",90.17%
same,MEAN CORPUSCULAR HEMOGLOBIN,"72 h, time 3 day",24.6 pg
same,MEAN CORPUSCULAR HEMOGLOBIN CONCENTRATION,"72 h, time 3 day",39.4 G/DL
same,MEAN CORPUSCULAR VOLUME,"72 h, time 3 day",62.48 fL
same,MONOCYTE,"72 h, time 3 day",1.17%
same,NEUTROPHIL,"72 h, time 3 day",7.67%
same,NUCLEATED RED BLOOD CELLS,"72 h, time 3 day",0 /100WBC
same,PLATELET COUNT,"72 h, time 3 day",1342 x10E3/uL
same,ALANINE AMINOTRANSFERASE,"72 h, time 3 day",49.67 u/L
same,ALBUMIN,"72 h, time 3 day",4.15 G/DL
same,ALKALINE PHOSPHATASE,"72 h, time 3 day",346.83 u/L
same,ASPARTATE AMINOTRANSFERASE,"72 h, time 3 day",108.17 u/L
same,BLOOD UREA NITROGEN,"72 h, time 3 day",17.33 mg/dL
same,CARBON DIOXIDE,"72 h, time 3 day",25 mmol/L
same,CHLORIDE,"72 h, time 3 day",100.83 MEQ/L
same,CHOLESTEROL,"72 h, time 3 day",66.83 mg/dL
same,CREATINE PHOSPHOKINASE,"72 h, time 3 day",788 u/L
same,CREATININE,"72 h, time 3 day",0.18 mg/dL
same,GLUCOSE,"72 h, time 3 day",151.67 mg/dL
same,LACTATE DEHYDROGENASE,"72 h, time 3 day",982.5 u/L
same,LIPASE,"72 h, time 3 day",10.33 u/L
same,PHOSPHORUS,"72 h, time 3 day",11.23 mg/dL
same,POTASSIUM,"72 h, time 3 day",6.37 MEQ/L
same,SODIUM,"72 h, time 3 day",141.02 MEQ/L
same,TOTAL BILIRUBIN,"72 h, time 3 day",0.18 mg/dL
same,TOTAL PROTEIN,"72 h, time 3 day",5.9 G/DL
same,URIC ACID,"72 h, time 3 day",1.8 mg/dL
same,ABSOLUTE BASOPHIL,"120 h, time 5 day",0 CELLS/uL
same,ABSOLUTE EOSINOPHIL,"120 h, time 5 day",69 CELLS/uL
same,ABSOLUTE LYMPHOCYTE,"120 h, time 5 day",13632.83 CELLS/uL
same,ABSOLUTE MONOCYTE,"120 h, time 5 day",139.83 CELLS/uL
same,ABSOLUTE SEGMENTED NEUTROPHIL,"120 h, time 5 day",1225 CELLS/uL
same,BASOPHIL,"120 h, time 5 day",0%
same,EOSINOPHIL,"120 h, time 5 day",0.33%
same,ERYTHROCYTE COUNT,"120 h, time 5 day",5.52 x10E6/uL
same,HEMATOCRIT,"120 h, time 5 day",33.98%
same,HEMOGLOBIN,"120 h, time 5 day",13.22 G/DL
same,LEUKOCYTE COUNT,"120 h, time 5 day",15.07 x10E3/uL
same,LYMPHOCYTE,"120 h, time 5 day",90.83%
same,MEAN CORPUSCULAR HEMOGLOBIN,"120 h, time 5 day",23.95 pg
same,MEAN CORPUSCULAR HEMOGLOBIN CONCENTRATION,"120 h, time 5 day",38.9 G/DL
same,MEAN CORPUSCULAR VOLUME,"120 h, time 5 day",61.53 fL
same,MONOCYTE,"120 h, time 5 day",0.83%
same,NEUTROPHIL,"120 h, time 5 day",8%
same,NUCLEATED RED BLOOD CELLS,"120 h, time 5 day",0 /100WBC
same,PLATELET COUNT,"120 h, time 5 day",1196 x10E3/uL
same,ALANINE AMINOTRANSFERASE,"120 h, time 5 day",49.17 u/L
same,ALBUMIN,"120 h, time 5 day",4.2 G/DL
same,ALKALINE PHOSPHATASE,"120 h, time 5 day",352.33 u/L
same,ASPARTATE AMINOTRANSFERASE,"120 h, time 5 day",89.67 u/L
same,BLOOD UREA NITROGEN,"120 h, time 5 day",18 mg/dL
same,CARBON DIOXIDE,"120 h, time 5 day",27.67 mmol/L
same,CHLORIDE,"120 h, time 5 day",101 MEQ/L
same,CHOLESTEROL,"120 h, time 5 day",72.83 mg/dL
same,CREATINE PHOSPHOKINASE,"120 h, time 5 day",417.5 u/L
same,CREATININE,"120 h, time 5 day",0.18 mg/dL
same,GLUCOSE,"120 h, time 5 day",150.5 mg/dL
same,LACTATE DEHYDROGENASE,"120 h, time 5 day",517.33 u/L
same,LIPASE,"120 h, time 5 day",9 u/L
same,PHOSPHORUS,"120 h, time 5 day",11.87 mg/dL
same,POTASSIUM,"120 h, time 5 day",6.57 MEQ/L
same,SODIUM,"120 h, time 5 day",143.62 MEQ/L
same,TOTAL BILIRUBIN,"120 h, time 5 day",0.2 mg/dL
same,TOTAL PROTEIN,"120 h, time 5 day",6.08 G/DL
same,URIC ACID,"120 h, time 5 day",1.45 mg/dL
